Structures are written as SMILES. Active and inactive are the calls of the source. The rule behind the calls is not given here.

The text below walks through data of ChEMBL document CHEMBL3822401, “PEGylated Bis-Sulfonamide Carbonic Anhydrase Inhibitors Can Efficiently Control the Growth of Several Carbonic Anhydrase IX-Expressing Carcinomas” (J Med Chem, 2016).

For test [1], the target named is Carbonic anhydrase 9 (Homo sapiens, UniProt Q16790).
Description: Inhibition of human recombinant carbonic anhydrase 9 preincubated for 15 mins prior to testing by stopped-flow CO2 hydration assay
Test [2] deals with HT-29. Briefly: Cytotoxicity against human HT-29 spheroids expressing carbonic anhydrase 9/12 assessed as cell viability at 1 mM after 24 hrs by WST8 assay. The test is classed as functional. A general note: Tetrazolium assays rely on reduction of a dye to a coloured formazan, in cell work by metabolically active cells.
For test [3], the system named is HT-29. Briefly: Cytotoxicity against human HT-29 spheroids expressing carbonic anhydrase 9/12 assessed as cell viability at 100 uM after 24 hrs by WST8 assay. The test is classed as functional.
Test [4] concerns SK-OV-3. Put plainly: (§1) Cytotoxicity against human SKOV3 spheroids expressing carbonic anhydrase 9/12 assessed as cell viability at 1 mM after 24 hrs by WST8 assay. The test is classed as functional.
The test system of test [5] is MDA-MB-231. Put plainly: Cytotoxicity against human MDA-MB-231 spheroids expressing carbonic anhydrase 9/12 assessed as cell viability at 100 uM after 24 hrs by WST8 assay. The test is classed as functional.
The test system of test [6] is SK-OV-3. Briefly: (§2) Cytotoxicity against human SKOV3 spheroids expressing carbonic anhydrase 9/12 assessed as cell viability at 100 uM after 24 hrs by WST8 assay. The test is classed as functional.
For test [7], the system named is MDA-MB-231. Put plainly: Cytotoxicity against human MDA-MB-231 spheroids expressing carbonic anhydrase 9/12 assessed as cell viability at 1 mM after 24 hrs by WST8 assay. The test is classed as functional.
Test [8] concerns HT-29. Put plainly: Cytotoxicity against human HT-29 cells expressing carbonic anhydrase 9/12 assessed as cell viability at 1 mM after 24 hrs under hypoxic conditions by MTT assay. The class given is functional. Particulars: HT-29, 24 h, read-out: Activity.
Test [9] has as its system HT-29. Put plainly: Cytotoxicity against human HT-29 cells expressing carbonic anhydrase 9/12 assessed as cell viability at 10 uM after 24 hrs under normoxic conditions by MTT assay. Conditions: HT-29, 24 h, read-out: Activity. The test is classed as functional.
Test [10] concerns MDA-MB-231. Put plainly: Cytotoxicity against human MDA-MB-231 cells expressing carbonic anhydrase 9/12 assessed as cell viability at 10 uM after 24 hrs under hypoxic conditions by MTT assay. The class given is functional. Particulars: MDA-MB-231, 24 h, read-out: Activity.
For test [11], the system named is HT-29. Briefly: Cytotoxicity against human HT-29 cells expressing carbonic anhydrase 9/12 assessed as cell viability at 100 uM after 24 hrs under hypoxic conditions by MTT assay. The class given is functional. Particulars: HT-29, 24 h, read-out: Activity.
Test [12] has as its system MDA-MB-231. Briefly: Cytotoxicity against human MDA-MB-231 cells expressing carbonic anhydrase 9/12 assessed as cell viability at 100 uM after 24 hrs under normoxic conditions by MTT assay. The class given is functional. Conditions: MDA-MB-231, 24 h, read-out: Activity.
In test [13] the test system is HT-29. Put plainly: Cytotoxicity against human HT-29 cells expressing carbonic anhydrase 9/12 assessed as cell viability at 1 mM after 24 hrs under normoxic conditions by MTT assay. The test is classed as functional. Conditions: HT-29, 24 h, read-out: Activity.
A short description of test [14]: Cytotoxicity against human SKOV3 cells expressing carbonic anhydrase 9/12 assessed as cell viability at 100 uM after 24 hrs under normoxic conditions by MTT assay. Particulars: SK-OV-3, 24 h, read-out: Activity. The class given is functional.
A short description of test [15]: Cytotoxicity against human SKOV3 cells expressing carbonic anhydrase 9/12 assessed as cell viability at 100 uM after 24 hrs under hypoxic conditions by MTT assay. The test is classed as functional. Particulars: SK-OV-3, 24 h, read-out: Activity.
The nature of test [16]: Cytotoxicity against human SKOV3 cells expressing carbonic anhydrase 9/12 assessed as cell viability at 10 uM after 24 hrs under hypoxic conditions by MTT assay. The test is classed as functional. Conditions: SK-OV-3, 24 h, read-out: Activity.
A short description of test [17]: Cytotoxicity against human SKOV3 cells expressing carbonic anhydrase 9/12 assessed as cell viability at 1 mM after 24 hrs under normoxic conditions by MTT assay. The class given is functional. Particulars: SK-OV-3, 24 h, read-out: Activity.
Test [18] has as its system MDA-MB-231. Briefly: Cytotoxicity against human MDA-MB-231 cells expressing carbonic anhydrase 9/12 assessed as cell viability at 1 mM after 24 hrs under normoxic conditions by MTT assay. The class given is functional. Particulars: MDA-MB-231, 24 h, read-out: Activity.
Test [19] can be described thus: as §1. The class given is functional. Particulars: SK-OV-3, 24 h, read-out: Activity.
A short description of test [20]: as §2. The test is classed as functional. Particulars: SK-OV-3, 24 h, read-out: Activity.
Test [21] has as its system HT-29. Briefly: Cytotoxicity against human HT-29 cells expressing carbonic anhydrase 9/12 assessed as cell viability at 10 uM after 24 hrs under hypoxic conditions by MTT assay. The class given is functional. Conditions: HT-29, 24 h, read-out: Activity.
Test [22] relates to HT-29. Briefly: Cytotoxicity against human HT-29 cells expressing carbonic anhydrase 9/12 assessed as cell viability at 100 uM after 24 hrs under normoxic conditions by MTT assay. The class given is functional. Conditions: HT-29, 24 h, read-out: Activity.
Test [23] has as its system MDA-MB-231. Briefly: Cytotoxicity against human MDA-MB-231 cells expressing carbonic anhydrase 9/12 assessed as cell viability at 10 uM after 24 hrs under normoxic conditions by MTT assay. Particulars: MDA-MB-231, 24 h, read-out: Activity. The test is classed as functional.
The subject of test [24] is MDA-MB-231. Briefly: Cytotoxicity against human MDA-MB-231 cells expressing carbonic anhydrase 9/12 assessed as cell viability at 1 mM after 24 hrs under hypoxic conditions by MTT assay. The class given is functional. Particulars: MDA-MB-231, 24 h, read-out: Activity.
Test [25] can be described thus: Cytotoxicity against human SKOV3 cells expressing carbonic anhydrase 9/12 assessed as cell viability at 10 uM after 24 hrs under normoxic conditions by MTT assay. The class given is functional. Particulars: SK-OV-3, 24 h, read-out: Activity.
A short description of test [26]: Cytotoxicity against human SKOV3 cells expressing carbonic anhydrase 9/12 assessed as cell viability at 1 mM after 24 hrs under hypoxic conditions by MTT assay. The test is classed as functional. Particulars: SK-OV-3, 24 h, read-out: Activity.
Test [27] deals with MDA-MB-231. Put plainly: Cytotoxicity against human MDA-MB-231 cells expressing carbonic anhydrase 9/12 assessed as cell viability at 100 uM after 24 hrs under hypoxic conditions by MTT assay. The test is classed as functional. Particulars: MDA-MB-231, 24 h, read-out: Activity.
Where [28] appears, read: HT-29, 24 h, read-out: Activity.
Where [29] appears, read: MDA-MB-231, 24 h, read-out: Activity.

As a reminder, the Ki is a measure of affinity in units of concentration, obtained from inhibition or displacement. As to `NS(=O)(=O)c1nnc(NC(=O)CCC(=O)NCCOCCOCCNC(=O)CCC(=O)Nc2nnc(S(N)(=O)=O)s2)s1`, the affinity in test [1] corresponds to a Ki of 9.6 nM.
`NS(=O)(=O)c1nnc(NC(=O)CCC(=O)O)s1`: the outcome in test [2], in test [3], in [4] and in test [6] was Active. Further, the result in test [5] and in test [7] was inactive.
For `NS(=O)(=O)c1ccc(NC(=O)CCC(=O)NCCOCCOCCNC(=O)CCC(=O)Nc2ccc(S(N)(=O)=O)cc2)cc1`, the outcome in test [2], in [3], in test [4] and in test [6] was Active. For the same molecule, in test [1], the inhibition constant Ki worked out at 2.9 nM. For the same molecule, the outcome in test [5] and in [7] was inactive.
Turning to `NS(=O)(=O)c1nnc(NS(=O)(=O)c2ccc(NC(=O)CCC(=O)NCCOCCOCCNC(=O)CCC(=O)Nc3ccc(S(=O)(=O)Nc4nnc(S(N)(=O)=O)s4)cc3)cc2)s1`, the outcome in [2], in test [3], in test [4] and in test [6] was Active. In test [1], the Ki was 24.1 nM. In addition, the outcome in test [5] and in [7] was inactive.
Consider `NS(=O)(=O)c1nnc(NC(=O)CCC(=O)NCCOCCOCCOCCOCCOCCOCCOCCOCCOCCOCCOCCOCCOCCOCCOCCOCCOCCOCCOCCOCCOCCOCCOCCOCCOCCOCCOCCOCCOCCOCCOCCOCCOCCOCCOCCOCCOCCOCCOCCOCCOCCOCCOCCOCCOCCNC(=O)CCC(=O)Nc2nnc(S(N)(=O)=O)s2)s1`, for which the viability at 1000 µM in [8] was 30%; in test [2] (setting [28]), 60%; in [13] it was 30%; in test [17] it was 30%; in [18], 30%; in test [19] it was 50%. For the same molecule, the viability at 1000 µM in [7] (setting [29]) was determined as 80%; in test [24], 30%; in [26] it was 30%. Besides, the viability at 10 µM in [9], in test [10], in [16], in [21], in test [23] and in test [25] was 60% each time. The viability at 100 µM in test [11] was found to be 50%; in test [12] it was 50%; in test [3] (setting [28]), 70%; in test [14], 50%; in test [15], 50%; in test [5] (setting [29]), 90%. For the same molecule, the viability at 100 µM in test [20] stood at 80%; in test [22] it was 50%; in test [27], 50%. This molecule also yielded a Ki in test [1] of 2.5 nM.
`NS(=O)(=O)c1ccc(NC(=O)CCC(=O)NCCOCCOCCOCCOCCOCCOCCOCCOCCOCCOCCOCCOCCOCCOCCOCCOCCOCCOCCOCCOCCOCCOCCOCCOCCOCCOCCOCCOCCOCCOCCOCCOCCOCCOCCOCCOCCOCCOCCOCCOCCOCCOCCOCCOCCOCCNC(=O)CCC(=O)Nc2ccc(S(N)(=O)=O)cc2)cc1` yielded a Ki in [1] of 4.8 nM.
Molecule `NS(=O)(=O)c1nnc(NS(=O)(=O)c2ccc(NC(=O)CCC(=O)NCCOCCOCCOCCOCCOCCOCCOCCOCCOCCOCCOCCOCCOCCOCCOCCOCCOCCOCCOCCOCCOCCOCCOCCOCCOCCOCCOCCOCCOCCOCCOCCOCCOCCOCCOCCOCCOCCOCCOCCOCCOCCOCCOCCOCCOCCNC(=O)CCC(=O)Nc3ccc(S(=O)(=O)Nc4nnc(S(N)(=O)=O)s4)cc3)cc2)s1` came in with an inhibition constant Ki in [1] of 1.7 nM.
With `NS(=O)(=O)c1nnc(NS(=O)(=O)c2ccc(NC(=O)CCC(=O)O)cc2)s1`, the outcome in test [2], in test [3], in test [4] and in [6] was Active. Also, the outcome in test [5] and in test [7] was inactive.
